Measurements reported in patent US12378220B2, “WNT signaling pathway inhibitors for treatments of disease” (University of Maryland, Baltimore, priority 2016, dated 2025).
Entries after “also recorded” stand apart in the source; their conditions may differ.

Experiments:
WiDr cells = assay: quantitative real-time RT-PCR of Wnt regulated genes; assay type: cell-based, human
Experimental: (§1) Quantitative Real-time RT-PCR. The total RNA extracted from the cells using TRIzol (Invitrogen) and 2 μg was reverse transcribed in a 20-μl volume system (QuantiTect Reverse Transcription Kit (Qiagen)) for quantitative PCR assays. SYBR green quantitative real-time PCR analyses were carried out using gene-specific primers (working concentration at 250 nM) in StepOnePlus real time PCR system (Applied Biosystems, AB), using the housekeeping gene GAPDH as an internal control. The PCR running procedure was as follows: 4 min denaturing at 95° C., followed by 40 cycles of 30 seconds of denaturing at 95° C. and then annealing and extension at 60° C. for 1 min.

A549 cells = assay: as above; assay type: cell-based, human
Experimental: as §1

SW620 cells [1] = assay: as above; assay type: cell-based, human
Experimental: as §1

[2] = system: WiDr, SW620, HT29, HEK_LTV, and T84 cell lines; assay: cell proliferation and growth inhibition assay (CCK-8), cell line panel; assay type: cell-based, human; settings: 72 h, FIG. 12
Experimental: Cell Proliferation and Growth Inhibition Assay. HT-29, HCT-116, WiDr, SW620, SW480, T84, A549, MCF-7, HepG2, Hela cells were cultured in respective growth medium. Cells of log phase were used. 3000-5000 cells/well were seeded in 96-well plates with a 100 μL volume. After 24 h, Compounds were dissolved to […] with DMSO, and a 3-fold serial dilution of the compounds from 5×10^−5 M to […] was performed. 2 μL of compound solution was added to 998 μL of growth medium, the mixture was vortexed sufficiently. 100 μL of the mixture was correspondingly added to the 96-well plate. 2 μL DMSO instead of compound solution was used as the 0% inhibitor control. After coincubation for 72 h, the old medium was removed and 100 μL of 10% CCK-8 in culture medium was added. 2 h later the plates were read in the microplate reader (Bio-Rad) at 450 nm. The data was calculated using Graph Pad Prism version 5.0. The IC50 were fitted using a nonlinear regression model with a sigmoidal dose response.

SW480 cells [3] = assay: Western blot of Wnt signaling proteins; assay type: cell-based, human; settings: 48 h
Experimental: Using a Wester Blot, compounds YW2013 and YW2123 were tested in SW480 cells to determine their effect on the expression of Axin-2, β-catenin, and c-myc.
Western Blot: 1×10^6 Cells of SW480 cells were seeded into 6-well plates overnight. A concentration of 3, 10, 30 μM/L YW2013 and 3, 10 μM/L YW2123 was added after 24 h, medium with 1‰ DMSO was used as the control. Cells were exposed to treatment for 48 h. The dishes was washed twice using precold PBS and 100 μL of RIPA then added. After incubating plates on ice for 15 min, cells were scraped carefully and centrifuged for 10 minutes at 14,000 g at 4° C. immediately. The remaining supernatant and lysates were maintained at −70° C. A Bio-Rad protein assay kit (500-0002) was used to quantitate the cell lysates. The concentration was adjusted to 2 mg/ml. A ratio of 1:1 2× loading buffer was added and the samples were denatured by boiling. Protein samples were separated on 4-15% SDS-polyacrylamide gel (SDS-PAGE) and transferred onto the PVDF membranes (Millipore). Immune complexes were formed by incubation of the proteins with primary antibody β-catenin, c-myc, Axin-2, and GAPDH at 4° C. overnight. A second antibody with horseradish peroxidase (HRP, sigma) conjugated was used then. Blots were developed by enhanced chemiluminescence (Thermo).

Wnt/β-catenin pathway = assay: dual-luciferase TCF/LEF reporter assay, LiCl-activated, HEK293 cells; assay type: cell-based; settings: Homo sapiens
[4] = system: Madin-Darby Canine Kidney (MDCK) epithelial cell monolayer; assay: permeability across MDCK monolayer on transwell plates; assay type: in vitro ADME; settings: data not shown
SW620 cells [5] = assay: Annexin-V/AAD-7 double-staining apoptosis assay; assay type: cell-based, human; settings: SW620 cells, 0, 3, 10, 30 μM, 48 h
Experimental: Annexin-V/AAD-7 Double-Staining Assay. SW620 cells were treated with 0, 3, 10, 30 μM/L of YW2013 for 48 h. Then they were harvested and washed with PBS. Apoptotic cells were determined with an FITC Annexin V Apoptosis Detection Kit according to the manufacturer's protocol. Briefly, the cells were washed and subsequently incubated for 15 min at room temperature in the dark in 100 μL of 1× binding buffer containing 2 μL of Annexin V-FITC and 2 μL of AAD-7. After 30 min, apoptosis was analyzed by BD FACSCanto II Flow Cytometer.

SW480 cells [6] = assay: colony formation assay; assay type: cell-based, human; settings: 0-30 μM, 2 weeks
Experimental: (§2) Colony Formation Assay. HT-29 and SW620, SW480 cells were seeded into 6-well dishes with the medium containing 0, 1, 3, 10, 30 μM/L of YW2013 or YW2044, 500 cells/well. After 2 weeks, cells were fixed with 4% paraformaldehyde solution and stained with 0.5% crystal violet for 1 h at room temperature. The images of colonies were captured by microscopy.

SW620 cells [7] = assay: colony formation assay; assay type: cell-based, human
Experimental: as §2

SW620 cells [8] = assay: cell cycle analysis by flow cytometry; assay type: cell-based, human; settings: unsynchronized and synchronized, 24 h
Experimental: SW620 cells were treated with YW2013 at various concentrations (0, 1, 10 μM) to determine the effect of YW2013 on the SW620 cell cycle in an unsynchronized assay (FIG. 27A) and an assay where cells were treated with FBS free medium for 24 hours up to synchronization before adding YW2013 (FIG. 27B).
Cell Cycle Analysis. SW620 cells were plated in 6-well plates for 24 h, and the medium was replaced with medium containing 0, 1, 10, μM/L of YW2013. After incubation for 24 h, the cells were harvested by trypsinization and then fixed with 70% 4° C. ethanol. Intracellular DNA was stained with 50 ng/ml propidium iodide in the dark for 30 min at room temperature, and the percentages of different phase of cells were determined by flow cytometry (BD FACScan; BD Biosciences).

SW620 xenograft = SW620 xenograft tumor growth; assay type: in vivo, nude mice; settings: i.p. 10 mg/kg or 50 mg/kg each day, 32 day study, vs vehicle
Experimental: FIG. 37A illustrates tumor growth measured during the study every other day. FIG. 37B illustrates tumor weight that was measured after mouse euthanization. FIG. 37C illustrates the change in mouse body weight during the study.
Six-week old nude mice were injected with 2×10^6 SW620 cells subcutaneously. 10 days after inoculation, mice received an i.p. injection of YW2065 at 10 mg/kg or 50 mg/kg or vehicle each day. The tumor growth (FIG. 37A) was measured every other day. The mice were euthanized at day 32, and tumors were weighed (FIG. 37B). Body weight change was monitored during the study (FIG. 37C).

SW480 cells [9] = assay: mitochondrial function and morphology; assay type: cell-based, human
Experimental: FIG. 38B illustrates ATP production estimated from the OCR measurement. […] DHE fluorescence intensity was measured by using ImageJ. ˜300 cells were counted in each treatment.
Mitochondrial function and morphology was determined in SW480 cells treated with YW2065.

| SMILES | mRNA expression of Wnt regulated genes (Axin-2 and/or cyclin D1) (WiDr cells) | mRNA expression of Wnt regulated genes (Axin-2 and/or cyclin D1) (A549 cells) | mRNA expression of Wnt regulated genes (Axin-2 and/or cyclin D1) (SW620 cells [1]) | growth inhibitory activity [2] | expression of Axin-2, β-catenin, and c-myc (SW480 cells [3]) | activity at 1 µM (Wnt/β-catenin pathway; HEK293, 24 h, At 1 μM concentration, remaining Wnt signaling activity, read-out: RLU % (Relative Light Units in reporter gene assays)) | IC50 (Wnt/β-catenin pathway; HEK293, Table 3, values in nM, read-out: IC50) | apical-to-basolateral and basolateral-to-apical flux [4] | apoptosis (SW620 cells [5]) | colony formation (SW480 cells [6]) | colony formation (SW620 cells [7]; 0-30 μM, 2 weeks) | reduction in colony formation in combination (SW620 cells [7]; combined with Gefitinib) | effect on cell cycle (SW620 cells [8]) | tumor growth (SW620 xenograft) | ATP production (estimated from OCR) (SW480 cells [9]) | ROS generation (DHE staining) (SW480 cells [9]) | oxygen consumption rate (OCR) (SW480 cells [9]) | mitochondrial morphology (SW480 cells [9]; 10 μM, 4 hours) |
| --- | --- | --- | --- | --- | --- | --- | --- | --- | --- | --- | --- | --- | --- | --- | --- | --- | --- | --- |
| Cc1ccccc1-n1ncc(C(=O)Nc2ccc3ccccc3n2)c1C [YW2013, 5-Methyl-N-(quinolin-2-yl)-1-(o-tolyl)-1H-pyrazole-4-carboxamide] | reduced mRNA expression | reduced mRNA expression | reduced mRNA expression | micromolar growth inhibitory activity | visibly reduced | 1.9% | 9.6 nM | significant apical-to-basolateral and basolateral-to-apical flux | induced apoptosis in SW620 cells in a dose dependent manner | dose dependent reduction | dose dependent reduction | markedly increased when combined with Gefitinib | cell cycle arrest in the G1 and S phases |  |  |  |  |  |
| Cc1c(C(=O)Nc2ccc3ccccc3n2)cnn1-c1ccccc1Br [YW2065, 1-(2-Bromophenyl)-5-methyl-N-(quinolin-2-yl)-1H-pyrazole-4-carboxamide] |  |  |  |  |  |  |  |  |  |  |  |  |  | markedly inhibited tumor growth; also recorded: inhibited SW620 xenograft growth | inhibited ATP production as a function of dosage | increased ROS generation | reduced oxygen consumption rate | caused short and punctuated mitochondria |
